This assay relates to nude mice, A549 intrarenal xenograft, tumor weight change. As to the kind of experiment: NCI In Vivo Anticancer Drug Screen. Data for tumor model A549 Human Adenocarcinoma of Lung with characteristics of Type II Alveolar Epithelial cells (intrarenal inoculation) in NU/NU BALB/C (nude) mice. To be noted: endpoint: mean tumor weight change, schedule: Q04DX003 (ip), higher = larger tumour. The protocol: The antitumor activity of compounds was measured in mice bearing transplantable tumors. Survival or tumor size were measured and the results are expressed as the measurement made in the treated group (T) divided by the measurement made in the vehicle treated control group (C). The tumor model used in this assay is A549 Human Adenocarcinoma of Lung with characteristics of Type II Alveolar Epithelial cells (intrarenal inoculation) in NU/NU BALB/C (nude) mice

[1] abbreviates: dose: 150.0 mg/kg/injection, vehicle: suspension in saline.
Setting [2] is: dose: 300.0 mg/kg/injection, vehicle: suspension in saline.
Setting [3] is: dose: 600.0 mg/kg/injection, vehicle: suspension in saline.
[4] abbreviates: dose: 100.0 mg/kg/injection, vehicle: saline with Tween-80.
The mark [5] stands for this setting: dose: 200.0 mg/kg/injection, vehicle: saline with Tween-80.
Setting [6] is: dose: 75.0 mg/kg/injection, vehicle: distilled water + Tween-80 + alcohol.
[7] abbreviates: dose: 150.0 mg/kg/injection, vehicle: distilled water + Tween-80 + alcohol.
[8] abbreviates: dose: 150.0 mg/kg/injection, vehicle: saline with Tween-80.
Setting [9] is: dose: 300.0 mg/kg/injection, vehicle: saline with Tween-80.
The mark [10] stands for this setting: dose: 600.0 mg/kg/injection, vehicle: saline with Tween-80.
The mark [11] stands for this setting: dose: 50.0 mg/kg/injection, vehicle: saline.
The mark [12] stands for this setting: dose: 25.0 mg/kg/injection, vehicle: saline.
Setting [13] is: dose: 50.0 mg/kg/injection, vehicle: saline with Tween-80.
The mark [14] stands for this setting: dose: 100.0 mg/kg/injection, vehicle: saline.

Where “and” joins values, the source holds several entries; their conditions need not be identical. Identical values can stand only once. Results filed as inconclusive are left out.

Turning to `O=c1[nH]cnc2c1nnn2C1OC(CO)C(O)C1O` (centres undefined), the T/C was 83 % of control under setting [1]; 47 % of control under setting [2]; 32 % of control under setting [3]; 38 % of control (dose: 1200.0 mg/kg/injection, vehicle: suspension in saline).

Turning to `CNC(=O)N(C)N=NCCCl`, the T/C by setting is: under setting [4], -19 % of control; under setting [5], -66 % of control.

Turning to `COc1cc2c(cc1OC)-c1c3c(cc4c1[C@@H](C2)N(C)CC4)OCO3`, the T/C runs as follows: (dose: 37.5 mg/kg/injection, vehicle: distilled water + Tween-80 + alcohol) 89 % of control; under setting [6], 84 % of control; under setting [7], 21 % of control.

With `CN(C)C(=O)Nc1ccc(Cl)cc1`, the T/C under setting [1] is 120 % of control, the T/C under setting [2] is 74 % of control and the T/C under setting [3] was 112 % of control.

For the compound `CNC(=O)/C=C/C1=CN2C(=O)c3ccc(C)c(O)c3NC(OC)C2C1` (centres undefined), the T/C was 1 % of control (dose: 100.0 micrograms/kg/injection, vehicle: saline); 20 % of control (dose: 200.0 micrograms/kg/injection, vehicle: saline); 29 % of control (dose: 400.0 micrograms/kg/injection, vehicle: saline); -17 % of control (dose: 800.0 micrograms/kg/injection, vehicle: saline).

Turning to `S=c1sc2ccccc2n1CN1CCOCC1`, the T/C is 81 % of control under setting [8], 172 % of control under setting [9] and 57 % of control under setting [10].

Regarding `CC[C@@]1(O)C(=O)OCc2c1cc1n(c2=O)Cc2cc3c(N)cccc3nc2-1`, the T/C is, setting by setting: (dose: 1.0 mg/kg/injection, vehicle: saline with Tween-80) 3 % of control; (dose: 1.44 mg/kg/injection, vehicle: saline with Tween-80) 1 % of control; (dose: 2.0 mg/kg/injection, vehicle: saline with Tween-80) -8 % of control; (dose: 2.4 mg/kg/injection, vehicle: saline with Tween-80) -64 % of control; (dose: 4.0 mg/kg/injection, vehicle: saline with Tween-80) -68 % of control.

For `Cc1ccccc1N=C(c1ccccc1)C1C(=O)c2ccccc2C1=O`, the T/C is, setting by setting: (dose: 150.0 mg/kg/injection, vehicle: other) 101 % of control; (dose: 300.0 mg/kg/injection, vehicle: other) 75 % of control; (dose: 600.0 mg/kg/injection, vehicle: other) 104 % of control; (dose: 1200.0 mg/kg/injection, vehicle: other) 121 % of control.

Take `CC(C)(C)c1ccc(C(=O)N2CCOC23CCCCC3)cc1`: the T/C reads like this: under setting [8], 55 % of control; under setting [9], 28 % of control; under setting [10], 63 % of control; (dose: 1200.0 mg/kg/injection, vehicle: saline with Tween-80) 42 % of control.

With `CCCCCCCCCCCCN1C(C)=CS/C1=C\C=C\c1scc(C)[n+]1CCCCCCCCCCCC`, the T/C runs as follows: (dose: 0.75 mg/kg/injection, vehicle: saline with Tween-80) 112 % of control; (dose: 1.5 mg/kg/injection, vehicle: saline with Tween-80) 87 % of control; (dose: 6.0 mg/kg/injection, vehicle: saline with Tween-80) 36 % of control.

With `N#CC(C#N)=NNc1ccc2cn[nH]c2c1`, the T/C (dose: 50.0 mg/kg/injection, vehicle: Klucel (hydroxypropylcellulose) (HPC)) was -6 % of control; the T/C (dose: 100.0 mg/kg/injection, vehicle: Klucel (hydroxypropylcellulose) (HPC)) was 117 % of control and 124 % of control.

Turning to `O=C1CN(CO)C(=O)N1CO`, the T/C is, setting by setting: under setting [11], 172 % of control; (dose: 400.0 mg/kg/injection, vehicle: saline) 120 % of control.

For `CCOC(=O)c1ccc(NN=NCCF)cc1`, the T/C is 114 % of control under setting [6]; 160 % of control under setting [7]; 63 % of control (dose: 300.0 mg/kg/injection, vehicle: distilled water + Tween-80 + alcohol).

Take `CCOc1ccc(-c2nc3ccc(-c4nc5ccc(N6CCN(C)CC6)cc5[nH]4)cc3[nH]2)cc1`: the T/C was 155 % of control (dose: 6.25 mg/kg/injection, vehicle: saline); 101 % of control under setting [12]; 171 % of control under setting [11].

Consider `CC(O)C1(O)C(O)CC(OC2c3cc4c(c(O)c3[C@@H]3C[C@@]2(C)OC32C=c3cc[nH]c3=N2)C(=O)c2cccc(O)c2C4=O)OC1C` (some centres undefined), for which the T/C by setting is: (dose: 25.0 mg/kg/injection, vehicle: saline with Tween-80) 65 % of control; under setting [13], 55 % of control.

Regarding `C=C(c1ccc(OC)c(OC)c1)c1nccc2cc(OC)c(OC)cc12`, the T/C reads like this: (dose: 150.0 mg/kg/injection, vehicle: Klucel (hydroxypropylcellulose) (HPC)) 50 % of control; (dose: 300.0 mg/kg/injection, vehicle: Klucel (hydroxypropylcellulose) (HPC)) 62 % of control.

On to `O=C(O)[C@H](Cc1ccccc1)N1C(=O)c2ccccc2C1=O`, for which the T/C is 94 % of control (dose: 150.0 mg/kg/injection, vehicle: DMSO); 77 % of control (dose: 300.0 mg/kg/injection, vehicle: DMSO); 47 % of control (dose: 600.0 mg/kg/injection, vehicle: DMSO).

With `Cc1ccc(C2=CSC3=NCCN23)cc1Cl`, the T/C reads like this: (dose: 2.5 mg/kg/injection, vehicle: suspension in saline) 88 % of control; (dose: 5.0 mg/kg/injection, vehicle: saline) 119 % of control; (dose: 5.0 mg/kg/injection, vehicle: suspension in saline) 60 % of control; (dose: 10.0 mg/kg/injection, vehicle: suspension in saline) 44 % of control; (dose: 20.0 mg/kg/injection, vehicle: saline) 104 % of control; (dose: 20.0 mg/kg/injection, vehicle: suspension in saline) 102 % of control. For the same compound, the T/C (dose: 40.0 mg/kg/injection, vehicle: saline) was 26 % of control.

Take `C/C(=N\NC(=O)c1ccccc1O)c1cccc(/C(C)=N/NC(=O)c2ccccc2O)n1`: the T/C reads like this: under setting [12], 97 % of control; under setting [11], 71 % of control; under setting [14], 65 % of control; (dose: 200.0 mg/kg/injection, vehicle: saline) 77 % of control.

For the compound `O=C(Nc1cccnc1)c1ccc([N+](=O)[O-])s1`, under setting [5], the T/C was 38 % of control and 51 % of control.

As to `COc1cccc2c1C(=O)c1c(O)c3c(c(O)c1C2=O)C[C@](O)(C(=O)CO)CC3OC1CC(N)C(OC2CCCCO2)C(C)O1` (some centres undefined), the T/C runs as follows: (dose: 1.88 mg/kg/injection, vehicle: water) 35 % of control; (dose: 3.75 mg/kg/injection, vehicle: water) 74 % of control; (dose: 7.5 mg/kg/injection, vehicle: water) 28 % of control; (dose: 15.0 mg/kg/injection, vehicle: water) 4 % of control.

With `O=S(=O)(c1cccc(N=C=S)c1)c1cccc(N=C=S)c1`, the T/C (dose: 30.0 mg/kg/injection, vehicle: Klucel (hydroxypropylcellulose) (HPC)) is 67 % of control.

For the compound `COC1=C(OC)C(=O)C(N(C)C)=C(CO)C1=O`, the T/C is, setting by setting: under setting [11], 123 % of control; under setting [14], 173 % of control.

`Cc1ccoc1`: the T/C runs as follows: under setting [13], 78 % of control; under setting [4], 89 % of control; under setting [5], 75 % of control.

Values taken from PubChem BioAssay AID278 (DTP/NCI, 2004).
